Here are results for two molecules from paper PMC7432838, “A Curcumin Analog Exhibits Multiple Biologic Effects on the Pathogenesis of Alzheimer’s Disease and Improves Behavior, Inflammation, and β-Amyloid Accumulation in a Mouse Model” (International Journal of Molecular Sciences, 2020).

For data set [1], the system named is rat neuroblastoma B104-APP751 stable cell line. Further details: method as in PMID 20622013. As to conditions: 15 and 20 μM, no cytotoxicity; cited from earlier work.
Data set [2] is described as follows: Brain penetration study in normal mice after oral dosing. Format: in vivo. The settings on record: oral dose of 150 mg/kg, normal mouse brain.
Another data set deals with Apo E in Huh-7 cells. Briefly: Western blotting of ApoE protein expression. The format is cell-based, human. As to conditions: 2.62 µg/mL, 24 h, vs medium and curcumin control. As for the experimental part:
After cells were seeded and treated with curcumin and TML-6 for 24 h, cells were washed with ice-cold PBS (Phosphate Buffered Saline) and lysed with 100 μL of RIPA cell lysis buffer (Pierce Biotechnology, Rockford, IL, USA) supplemented with protease and phosphatase inhibitors (Roche Diagnostics, Mannheim, Germany). Cell lysates were further cleaned by centrifugation at 14,000 rpm at 4 °C for 15 min. Protein concentration was determined using a Bradford assay (Bio-Rad, Hercules, CA, USA). For Western blot analysis, 20 μg of each sample was prepared for SDS-PAGE (SDS Poly-acrylamide-gel-electrophoresis) and denatured at 95 ℃ for 10 min. The samples prepared from total lysates were loaded and separated by SDS-PAGE (8% or 10%), and then transferred to PVDF membranes (pore size 0.45 μm; PerkinElmer, Waltham, MA, USA) by semi-dry transfer cell (Bio-Rad). After blocking with 5% skim milk in PBS-T (0.1% Tween-20), the membranes were hybridized with primary antibodies at 1/1000 dilution at 4 °C overnight. On the next day, membranes were washed with PBS-T followed by incubation with HRP-conjugated anti-mouse or anti-rabbit secondary antibody (DAKO, Santa Clara, CA, USA) at 1/5000 dilution at room temperature for 1 h as appropriate. […]

Data set [3] can be described thus: Cytotoxicity assay by Cell Counting Kit-8 (CCK-8). The format is cell-based, human. As to conditions: human, Huh-7 cells; Huh-7, 24 h. Here is the method: The cytotoxicity assay was performed using the Cell Counting Kit-8 (CCK-8, Sigma). We dissolved 0.0524 g of TML-6 (molecular weight is 523.62 g/mol) in 10 mL DMSO to obtain TML-6 stock at 10 mM for cell line study. […] Briefly, Huh-7 cells were seeded overnight in 96-well plates at 5000 cells/well and then subjected to traditional curcumin or TML-6 treatment for 24 h. At each time point, a CCK-8 solution (0.25 mg/mL) was added to the medium in each well for an additional 4 h incubation, and absorbance was measured at 570 nm using an ELISA reader.
On the technique in general: Formazan colour is commonly taken as a measure of viable cells.

Data set [4] relates to Nrf2 promoter in Huh-7 cells. Briefly: Nrf2 promoter Dual-Luciferase reporter assay. The format is cell-based, human. As for the experimental part:
To examine the activities of the anti-oxidative gene NrF2, Huh-7 cells were seeded in 24-well culture plates and then co-transfected with serial dilution of pG5-Nrf2-Luc (firefly luciferase) with the pRL-TK Renilla luciferase reporter. Following overnight incubation, the transfected cells were treated with traditional curcumin and TML-6 compounds for additional 24 h. The luciferase reporter assay was performed using the Dual-Luciferase Reporter assay system (Promega, Madison, WI, USA). The cell lysates were assayed for both firefly and Renilla luciferase activities. The relative luciferase units (RLU) were measured using a luminometer (GLOMAX Multi, Promega). Firefly luciferase activity was normalized for transfection efficiency using the Renilla luciferase activity in each lysate as the control. The RLUs are expressed as means plus standard deviation of three independent experiments.

Data set [5] in a line: Brain penetration study in AD transgenic mice after oral dosing. The settings on record: oral dose of 150 mg/kg. The format is in vivo, mouse.

“And” between values parts separate entries of the source, which are not always exact repeats. Identical values can stand only once.

On to curcumin [reference compound], for which the “Aβ40 and Aβ42 levels (in words)” value in data set [1] is recorded as “significantly decreased”.
In general, IC50 refers to the midpoint of a concentration-inhibition curve. Low readings indicate higher potency, high ones lower potency. In the case of `CCN(CC)C(=O)CC(C)(C(=O)/C=C/c1ccc(OC)c(OC)c1)C(=O)/C=C/c1ccc(OC)c(OC)c1` [TML-6], the detection in brain entry in data set [2] is on record as “could not be detected”. For the same molecule, in the data set with Apo E in Huh-7 cells, the “induction of ApoE protein expression level” value was “approximately 44%”. The IC50 at 24 h in data set [3] was 4.19 µg/mL and 8 µM. For the same molecule, the “concentration of highest Nrf2 transcriptional activation” value in data set [4] (Huh-7, 24 h, luciferase reporter) is reported as 1.32 µg/mL. The “concentration beyond which cytotoxicity was found in Nrf2 promoter-transfected cells” value in data set [4] (Huh-7 transiently transfected with Nrf2 promoter) was greater than 5.24 µg/mL. Also, in data set [4] (TML-6 at 1.32 µg/mL vs curcumin 10 µg/mL, Huh-7, 24 h), the “Nrf2 promoter activity, fold stronger than traditional curcumin at 10 µg/mL” value came to 12.1 fold. Moreover, in data set [4] (TML-6 at 1.32 µg/mL vs curcumin 20 µg/mL, Huh-7, 24 h), the “Nrf2 promoter activity, fold stronger than traditional curcumin at 20 µg/mL” value worked out at 6.6 fold. For the same molecule, the Kp in data set [5] (brain relative to plasma, AD transgenic mouse, read-out: brain level as % of the plasma pK levels) is 0.1. Moreover, the “level detected in brain” value in data set [5] (AD transgenic mouse brain, preliminary) is 0.003 µg/mL.
